Among the test systems are HCT-116 colon; HCC-2998 colon; NCI/ADR-RES ovarian; NCI-H522 lung; PC-3 prostate; RPMI-8226 leukemia; SW-620 colon; COLO 205 colon; K-562 leukemia; EKVX NSCLC; IGROV1 ovarian; NCI-H23 lung; MDA-N; SK-OV-3 ovarian; NCI-H460 lung; OVCAR-5 ovarian; MOLT-4 leukemia; SK-MEL-2 melanoma; BT-549 breast.
What all share (assay): NCI-60 cell line screen, 48 h

The values that follow come from PubChem BioAssay (NCI).

Structures are written as SMILES.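 In this assay, cells in 96-well plates receive the compound at five concentrations for 48 hours. Endpoints are linearly interpolated between the surrounding concentrations. TGI marks complete inhibition of growth.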

Consider `COc1ccc(-n2cnc3c2NC(C)(C)N=C3C(N)=O)c(OC)c1`, for which the TGI in the assay on HCT-116 colon, in the assay with HCC-2998 colon, with NCI/ADR-RES ovarian, with NCI-H522 lung, with PC-3 prostate and in the assay with RPMI-8226 leukemia was more than 100 µM throughout. For the same compound, the TGI in the assay on SW-620 colon, in the assay with COLO 205 colon, in the assay on K-562 leukemia, with EKVX NSCLC, in the assay on IGROV1 ovarian and with NCI-H23 lung was more than 100 µM each time. The TGI in the assay with MDA-N, in the assay with SK-OV-3 ovarian, in the assay with NCI-H460 lung and with OVCAR-5 ovarian was more than 100 µM each time.

Turning to `CCOP(=O)(OCC)C(Nc1ccc(Br)cc1)c1cccc([N+](=O)[O-])c1` (centres undefined), the TGI stood at 25.6 µM in the assay on HCT-116 colon; 32.4 µM in the assay on HCC-2998 colon; 44.8 µM with NCI/ADR-RES ovarian; 28 µM in the assay with NCI-H522 lung; 98.2 µM with RPMI-8226 leukemia; 35.4 µM in the assay on SW-620 colon. Besides, the TGI was 26 µM with COLO 205 colon; 47.8 µM in the assay with MOLT-4 leukemia; 38.6 µM with K-562 leukemia; 10.8 µM in the assay with EKVX NSCLC; 76.5 µM in the assay with IGROV1 ovarian; 53 µM in the assay with NCI-H23 lung. Besides, the TGI amounted to 37.2 µM with MDA-N; 41.5 µM in the assay on SK-OV-3 ovarian; 29.3 µM in the assay on NCI-H460 lung; 31.4 µM in the assay on SK-MEL-2 melanoma; 67.6 µM with OVCAR-5 ovarian.

Take `Cc1cccc(N(C(=O)Nc2ccc(Cl)c(Cl)c2)C2=NCC(C)S2)c1` (centres undefined): the TGI with HCT-116 colon, with HCC-2998 colon, with NCI/ADR-RES ovarian, in the assay with PC-3 prostate, with RPMI-8226 leukemia and with SW-620 colon was more than 100 µM each time. For the same compound, the TGI in the assay with COLO 205 colon, in the assay on MOLT-4 leukemia, with K-562 leukemia, with EKVX NSCLC, with IGROV1 ovarian and in the assay on NCI-H23 lung was more than 100 µM throughout. The TGI with MDA-N, in the assay with SK-OV-3 ovarian, in the assay on NCI-H460 lung, in the assay with SK-MEL-2 melanoma and with OVCAR-5 ovarian was more than 100 µM in each case.

For `O=C(NCCNCCCNC(=O)c1cc(-c2ccccc2)nc2ccccc12)c1cccc(O)c1O`, the TGI was 28.5 µM with HCT-116 colon; 17.4 µM with HCC-2998 colon; more than 100 µM in the assay with NCI/ADR-RES ovarian; 29.7 µM in the assay with NCI-H522 lung; more than 100 µM in the assay on PC-3 prostate; 11.9 µM in the assay on BT-549 breast. The TGI with RPMI-8226 leukemia is 15.3 µM; in the assay on SW-620 colon, more than 100 µM; in the assay with COLO 205 colon, 22.4 µM; in the assay on MOLT-4 leukemia it was more than 100 µM; in the assay on K-562 leukemia, 11.1 µM; in the assay on EKVX NSCLC, more than 100 µM. Also, the TGI in the assay on IGROV1 ovarian is 28.9 µM; with NCI-H23 lung, 37.8 µM; with SK-OV-3 ovarian, more than 100 µM; with NCI-H460 lung, 41.6 µM; in the assay with SK-MEL-2 melanoma, 15.1 µM; with OVCAR-5 ovarian, 13.9 µM.

`N#CC(=C1CCN(CCCC(=O)c2ccc(F)cc2)CC1)c1ccccc1`: the TGI with HCT-116 colon was more than 100 µM; in the assay on HCC-2998 colon, more than 100 µM; with NCI/ADR-RES ovarian, more than 100 µM; in the assay with NCI-H522 lung, 95.2 µM; with PC-3 prostate, more than 100 µM; with BT-549 breast, more than 100 µM. Further, the TGI in the assay with RPMI-8226 leukemia, with SW-620 colon, in the assay with COLO 205 colon, with MOLT-4 leukemia, with K-562 leukemia and in the assay on EKVX NSCLC was more than 100 µM each time. The TGI in the assay on IGROV1 ovarian, in the assay with NCI-H23 lung, with SK-OV-3 ovarian, in the assay with NCI-H460 lung, with SK-MEL-2 melanoma and in the assay with OVCAR-5 ovarian was more than 100 µM each time.

`CC1CC[C@@]2(OC1)OC1C[C@H]3[C@@H]4CC=C5CC(OC6OC(CO)C(OC7OC(CO)C(O)C(OC8OCC(O)C(O)C8O)C7OC7OC(CO)C(O)C(O)C7O)C(O)C6O)CCC5(C)[C@H]4CCC3(C)C1[C@@H]2C` (some centres undefined): the TGI with HCT-116 colon was 8.14 µM; in the assay with HCC-2998 colon, 8.63 µM; with NCI/ADR-RES ovarian it was 12.9 µM; with NCI-H522 lung, 9.69 µM; in the assay with PC-3 prostate it was 7.45 µM; in the assay on BT-549 breast it was 9.24 µM. For the same compound, the TGI in the assay with RPMI-8226 leukemia is 18.4 µM; in the assay on SW-620 colon, 8.3 µM; with COLO 205 colon, 8.16 µM; in the assay with MOLT-4 leukemia it was 19.8 µM; in the assay with K-562 leukemia it was 17.7 µM; in the assay on EKVX NSCLC it was 9.01 µM. For the same compound, the TGI in the assay on IGROV1 ovarian was 8.06 µM; in the assay on NCI-H23 lung, 11.7 µM; in the assay with SK-OV-3 ovarian, 20.7 µM; in the assay on NCI-H460 lung, 11.8 µM; with SK-MEL-2 melanoma, more than 25 µM; with OVCAR-5 ovarian, more than 25 µM.

With `Cc1ccc(N(C(=O)Nc2ccccc2)C2=NCC(C)S2)cc1C` (centres undefined), the TGI with HCT-116 colon is 46.5 µM; in the assay with HCC-2998 colon it was more than 10 µM; in the assay on NCI/ADR-RES ovarian, 52.4 µM; in the assay with PC-3 prostate it was more than 100 µM; in the assay on RPMI-8226 leukemia, 49 µM; in the assay with SW-620 colon, 62.9 µM. Also, the TGI in the assay with COLO 205 colon is 41.6 µM; with MOLT-4 leukemia it was more than 10 µM; with K-562 leukemia, more than 100 µM; in the assay on EKVX NSCLC, 72.1 µM; with IGROV1 ovarian, 89.8 µM; in the assay with NCI-H23 lung, 42.5 µM. The TGI was 31.9 µM in the assay with MDA-N; more than 100 µM in the assay with SK-OV-3 ovarian; 44.6 µM in the assay with NCI-H460 lung; 32.2 µM in the assay on SK-MEL-2 melanoma; 73.5 µM in the assay with OVCAR-5 ovarian.

Take `CC(=O)O[C@H]1C(=O)[C@@]2(C)[C@H]([C@H](OC(=O)c3ccccc3)[C@]3(O)C[C@H](OC(=O)[C@H](O)[C@@H](NC(=O)c4cccc(N=[N+]=[N-])c4)c4ccccc4)C(C)=C1C3(C)C)[C@]1(OC(C)=O)CO[C@@H]1C[C@@H]2O`: the TGI with NCI/ADR-RES ovarian is more than 25 µM; in the assay on PC-3 prostate, more than 25 µM; in the assay with RPMI-8226 leukemia, 0.134 µM; with SW-620 colon, more than 25 µM; in the assay on COLO 205 colon, 0.0405 µM; with MOLT-4 leukemia, 1.12 µM. Further, the TGI in the assay on K-562 leukemia is 0.0242 µM; in the assay with EKVX NSCLC, more than 25 µM; in the assay on IGROV1 ovarian, more than 25 µM; with MDA-N, 0.00735 µM; with SK-OV-3 ovarian it was more than 25 µM; in the assay with NCI-H460 lung it was more than 25 µM. In the assay on OVCAR-5 ovarian, this compound displayed a TGI of 1.06 µM.
